ChEMBL document CHEMBL1201862, “PubChem BioAssay data set” (2004)
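Tested at 5 concentrations; 48 h exposure; 96-well plates; endpoints linearly interpolated, else capped at highest concentration. At the GI50, growth is halved.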 Activity calls are given as the source filed them. Rule as the data show it: active = GI50 up to about 1.1 µM and inactive = higher.

Tests used:
Experiment in all cases: inhibition of tumour cell growth, NCI panel, 48 h
MOLT-4 = tested on: MOLT-4
OVCAR-4 = tested on: OVCAR-4
UACC-62 = tested on: UACC-62
OVCAR-5 = tested on: OVCAR-5
786-0 = tested on: 786-0
SF-539 = tested on: SF-539
KM12 = tested on: KM12
UO-31 = tested on: UO-31
NCI-H23 = tested on: NCI-H23
HCC 2998 = tested on: HCC 2998
SNB-19 = tested on: SNB-19
NCI-H460 = tested on: NCI-H460
SN12C = tested on: SN12C
ACHN = tested on: ACHN
RXF 393 = tested on: RXF 393
COLO 205 = tested on: COLO 205
SNB-75 = tested on: SNB-75
MDA-N = tested on: MDA-N
MDA-MB-231 = tested on: MDA-MB-231

| Compound | GI50 (MOLT-4) | GI50 (OVCAR-4) | GI50 (UACC-62) | GI50 (OVCAR-5) | GI50 (786-0) | GI50 (SF-539) | GI50 (KM12) | GI50 (UO-31) | GI50 (NCI-H23) | GI50 (HCC 2998) | GI50 (SNB-19) | GI50 (NCI-H460) | GI50 (SN12C) | GI50 (ACHN) | GI50 (RXF 393) | GI50 (COLO 205) | GI50 (SNB-75) | GI50 (MDA-N) | GI50 (MDA-MB-231) |
| --- | --- | --- | --- | --- | --- | --- | --- | --- | --- | --- | --- | --- | --- | --- | --- | --- | --- | --- | --- |
| COC(=O)CCC(=O)C(CC(=O)OC)C(=O)CCC(=O)NCCc1ccccc1 (configuration not stated) | > 100 µM (inactive) | > 100 µM (inactive) | > 100 µM (inactive) | > 100 µM (inactive) | > 100 µM (inactive) | > 100 µM (inactive) | > 100 µM (inactive) | > 100 µM (inactive) | > 100 µM (inactive) | > 100 µM (inactive) | > 100 µM (inactive) | > 100 µM (inactive) | > 100 µM (inactive) | > 100 µM (inactive) | > 100 µM (inactive) | > 100 µM (inactive) | > 100 µM (inactive) |  |  |
| N=c1n(CC(=O)NC23CC4CC(CC(C4)C2)C3)c2ccccc2n1CC(=O)NC12CC3CC(CC(C3)C1)C2 | 2.64 µM (inactive) | 1.79 µM (inactive) | 1.96 µM (inactive) | 1.69 µM (inactive) | 1.8 µM (inactive) | 1.92 µM (inactive) | 1.61 µM (inactive) | 13.2 µM (inactive) | 1.74 µM (inactive) | 1.36 µM (inactive) | 1.66 µM (inactive) | 1.78 µM (inactive) | 1.87 µM (inactive) | 2 µM (inactive) | 1.75 µM (inactive) | 1.89 µM (inactive) | 2.29 µM (inactive) |  |  |
| N=C(CC(=O)Nc1ccc(Cl)cc1)Nc1ccccc1 | > 100 µM (inactive) | > 100 µM (inactive) | > 100 µM (inactive) | > 100 µM (inactive) | > 100 µM (inactive) | > 100 µM (inactive) | > 100 µM (inactive) | > 100 µM (inactive) | > 100 µM (inactive) | > 100 µM (inactive) | > 100 µM (inactive) | > 100 µM (inactive) | > 100 µM (inactive) | > 100 µM (inactive) | > 100 µM (inactive) | > 100 µM (inactive) | > 100 µM (inactive) |  |  |
| COC(=O)CNC(=O)CSc1nnc(COc2ccc(Cl)cc2)n1-c1ccccc1 | 64.1 µM (inactive) | > 100 µM (inactive) | 39.5 µM (inactive) | 56.1 µM (inactive) | 16.1 µM (inactive) | > 100 µM (inactive) | 56.9 µM (inactive) | 27.4 µM (inactive) | 40.3 µM (inactive) | 25.3 µM (inactive) | > 100 µM (inactive) | 56.8 µM (inactive) | 19.8 µM (inactive) | 24 µM (inactive) | 23.1 µM (inactive) | > 100 µM (inactive) | 17.3 µM (inactive) | 19.2 µM (inactive) | 20.5 µM (inactive) |
| C/C(CC(=O)CCCC(=O)Nc1ccc(Cl)cc1Cl)=N/NC(=O)CC#N | > 100 µM (inactive) | > 100 µM (inactive) | > 100 µM (inactive) | > 100 µM (inactive) | > 100 µM (inactive) | > 100 µM (inactive) | > 100 µM (inactive) | > 100 µM (inactive) | > 100 µM (inactive) | > 100 µM (inactive) | > 100 µM (inactive) | > 100 µM (inactive) | > 100 µM (inactive) | > 100 µM (inactive) | > 100 µM (inactive) | > 100 µM (inactive) | > 100 µM (inactive) |  |  |
| N=C(N)n1nc2c(c1O)CCCC2 | > 100 µM (inactive) | > 100 µM (inactive) | > 100 µM (inactive) | > 100 µM (inactive) | > 100 µM (inactive) | > 100 µM (inactive) | > 100 µM (inactive) | > 100 µM (inactive) | > 100 µM (inactive) | > 100 µM (inactive) | > 100 µM (inactive) | > 100 µM (inactive) | > 100 µM (inactive) | > 100 µM (inactive) | > 100 µM (inactive) | > 100 µM (inactive) | 14.5 µM (inactive) | > 100 µM (inactive) | > 100 µM (inactive) |
| O=P1(c2ccccc2)CCCCC1 | > 100 µM (inactive) | > 100 µM (inactive) | > 100 µM (inactive) | > 100 µM (inactive) | > 100 µM (inactive) | > 100 µM (inactive) | > 100 µM (inactive) | > 100 µM (inactive) | > 100 µM (inactive) | > 100 µM (inactive) | > 100 µM (inactive) | > 100 µM (inactive) | > 100 µM (inactive) | > 100 µM (inactive) | > 100 µM (inactive) | > 100 µM (inactive) | > 100 µM (inactive) |  |  |
| Cc1nc(O)c2ncn(CCO)c2n1 |  | > 100 µM (inactive) | > 100 µM (inactive) | > 100 µM (inactive) | > 100 µM (inactive) | > 100 µM (inactive) | > 100 µM (inactive) |  | > 100 µM (inactive) | > 100 µM (inactive) | > 100 µM (inactive) | > 100 µM (inactive) | > 100 µM (inactive) | > 100 µM (inactive) | > 100 µM (inactive) | > 100 µM (inactive) | > 100 µM (inactive) | > 100 µM (inactive) | > 100 µM (inactive) |
| C(=C1\CCC/C(=C/c2ccccc2)C1=NNc1ccccc1)/c1ccccc1 | > 100 µM (inactive) | > 100 µM (inactive) | > 100 µM (inactive) | > 100 µM (inactive) | > 100 µM (inactive) | > 100 µM (inactive) | > 100 µM (inactive) | > 100 µM (inactive) | > 100 µM (inactive) | > 100 µM (inactive) | > 100 µM (inactive) | > 100 µM (inactive) | > 100 µM (inactive) | > 100 µM (inactive) | 38.2 µM (inactive) | > 100 µM (inactive) | 87.3 µM (inactive) |  |  |
| c1ccc(C2=C(c3ccccc3)P(c3ccccc3)C2)cc1 (configuration not stated) | 22.1 µM (inactive) | > 100 µM (inactive) |  | > 100 µM (inactive) | > 100 µM (inactive) | > 100 µM (inactive) | 49.7 µM (inactive) |  |  | > 100 µM (inactive) |  | 92.3 µM (inactive) | > 100 µM (inactive) | > 100 µM (inactive) | > 100 µM (inactive) | > 100 µM (inactive) | 32.7 µM (inactive) | > 100 µM (inactive) | > 100 µM (inactive) |
| CC(C)n1c(=O)[nH]n(-c2ccccc2)c1=O | > 100 µM (inactive) | > 100 µM (inactive) | > 100 µM (inactive) | > 100 µM (inactive) | > 100 µM (inactive) | > 100 µM (inactive) | > 100 µM (inactive) | > 100 µM (inactive) | > 100 µM (inactive) |  | > 100 µM (inactive) | > 100 µM (inactive) | > 100 µM (inactive) | > 100 µM (inactive) | > 100 µM (inactive) | > 100 µM (inactive) | > 100 µM (inactive) | > 100 µM (inactive) | > 100 µM (inactive) |
| CC(=O)Nc1ccccc1NC1CC(C)N(c2ccccc2)N1C(C)=O (configuration not stated) | > 10 µM (inactive) | > 10 µM (inactive) | > 10 µM (inactive) |  | > 10 µM (inactive) |  | > 10 µM (inactive) |  | > 10 µM (inactive) | > 10 µM (inactive) |  |  | > 10 µM (inactive) |  | > 10 µM (inactive) | > 10 µM (inactive) | > 10 µM (inactive) | > 10 µM (inactive) | > 10 µM (inactive) |
| CCOC(=O)c1ccc(-n2c(SCC)nc3sc(C)c(C)c3c2=O)cc1 | > 10 µM (inactive) | 53.8 µM (inactive) | > 100 µM (inactive) | > 100 µM (inactive) | 85.9 µM (inactive) | > 100 µM (inactive) | > 100 µM (inactive) | > 100 µM (inactive) | > 100 µM (inactive) | > 100 µM (inactive) | > 100 µM (inactive) | > 100 µM (inactive) | > 100 µM (inactive) | > 100 µM (inactive) | 94.8 µM (inactive) | > 100 µM (inactive) | 36.7 µM (inactive) |  |  |
| CCCCCCNCCc1c[nH]cn1 | > 100 µM (inactive) | > 100 µM (inactive) | > 100 µM (inactive) | > 100 µM (inactive) | > 100 µM (inactive) | > 100 µM (inactive) | > 100 µM (inactive) | > 100 µM (inactive) | > 100 µM (inactive) | > 100 µM (inactive) | > 100 µM (inactive) | > 100 µM (inactive) | > 100 µM (inactive) | > 100 µM (inactive) | > 100 µM (inactive) | > 100 µM (inactive) | > 100 µM (inactive) |  | > 100 µM (inactive) |
| COc1cc(C2c3cc4c(cc3[C@@H](Nc3ccc(N(C)C)cc3)[C@H]3COC(=O)C23)OCO4)cc(OC)c1O (some centres not stated) | 0.108 µM (active) | 9.35 µM (inactive) | 0.232 µM (active) | 0.818 µM (active) | 0.228 µM (active) | 0.316 µM (active) | 1.24 µM (inactive) | 0.607 µM (active) | 0.189 µM (active) | 1.27 µM (inactive) | 0.273 µM (active) | 0.0214 µM (active) | 0.34 µM (active) | 0.049 µM (active) | 0.951 µM (active) | 1.85 µM (inactive) | 0.324 µM (active) |  |  |
| CC1(C)CCCC2(C)[C@@H]1CC[C@@]13CC(=O)[C@@](C)(CC[C@@H]21)C3 (some centres not stated) | 57.4 µM (inactive) | 87.9 µM (inactive) | > 100 µM (inactive) | > 100 µM (inactive) | > 100 µM (inactive) | > 100 µM (inactive) | 80.5 µM (inactive) | > 100 µM (inactive) | 59.7 µM (inactive) | > 100 µM (inactive) | > 100 µM (inactive) | 42.1 µM (inactive) | 93.5 µM (inactive) | 87.3 µM (inactive) | 18.3 µM (inactive) | > 100 µM (inactive) | > 100 µM (inactive) |  |  |
